Data from ChEMBL document CHEMBL4346710, “Discovery of 7H-pyrrolo[2,3-d]pyrimidine derivatives as selective covalent irreversible inhibitors of interleukin-2-inducible T-cell kinase (Itk)” (Eur J Med Chem, 2019).
Activity calls are given as the source filed them. No cut-off for these calls is given here.

How the values were obtained:
[1] = molecular target: T1, Tyrosine-protein kinase ITK/TSK (Homo sapiens, UniProt Q08881); assay: Inhibition of recombinant human N-terminal His6-tagged ITK (352 to 617 residues) expressed in baculovirus infected Sf21 insect cells using STK substrate by HTRF assay
T1 sequence (Q08881 whole entry): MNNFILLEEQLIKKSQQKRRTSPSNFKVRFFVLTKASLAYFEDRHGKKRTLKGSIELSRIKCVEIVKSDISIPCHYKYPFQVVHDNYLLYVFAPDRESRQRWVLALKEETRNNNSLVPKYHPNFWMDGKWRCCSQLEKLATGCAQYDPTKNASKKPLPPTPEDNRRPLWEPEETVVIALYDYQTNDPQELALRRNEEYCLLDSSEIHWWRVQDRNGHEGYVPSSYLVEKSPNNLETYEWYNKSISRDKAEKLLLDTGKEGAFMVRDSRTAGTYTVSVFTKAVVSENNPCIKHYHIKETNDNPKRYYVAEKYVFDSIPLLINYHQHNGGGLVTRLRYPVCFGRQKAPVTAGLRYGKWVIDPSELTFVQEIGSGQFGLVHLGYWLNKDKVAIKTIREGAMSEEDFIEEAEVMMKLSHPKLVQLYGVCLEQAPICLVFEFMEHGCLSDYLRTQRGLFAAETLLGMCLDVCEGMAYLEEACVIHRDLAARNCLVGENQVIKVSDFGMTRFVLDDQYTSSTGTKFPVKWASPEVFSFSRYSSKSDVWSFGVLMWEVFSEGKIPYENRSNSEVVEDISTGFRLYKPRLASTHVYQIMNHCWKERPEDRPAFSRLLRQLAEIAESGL

Homo sapiens = species: Homo sapiens; assay: Selectivity ratio of IC50 for recombinant human full-length N-terminal His6-tagged BTK expressed in baculovirus infected Sf21 insect cells to IC50 for recombinant human N-terminal His6-tagged ITK (352 to 617 residues) expressed in baculovirus infected Sf21 insect cells
[2] = molecular target: Serine/threonine-protein kinase Sgk1 (Homo sapiens) (UniProt O00141); assay: Inhibition of recombinant human GST-tagged SGK1 catalytic domain (60 to 431 residues) expressed in baculovirus expression system assessed as enzyme residual activity at 0.4 uM using fluorophore-labeled serine/threonine-6 peptide as substrate incubated for 60 mins by Z'-LYTE assay relative to control
Serine/threonine-protein kinase Sgk1 (Homo sapiens), sequence (O00141 whole entry, the tested form may be a part, canonical isoform): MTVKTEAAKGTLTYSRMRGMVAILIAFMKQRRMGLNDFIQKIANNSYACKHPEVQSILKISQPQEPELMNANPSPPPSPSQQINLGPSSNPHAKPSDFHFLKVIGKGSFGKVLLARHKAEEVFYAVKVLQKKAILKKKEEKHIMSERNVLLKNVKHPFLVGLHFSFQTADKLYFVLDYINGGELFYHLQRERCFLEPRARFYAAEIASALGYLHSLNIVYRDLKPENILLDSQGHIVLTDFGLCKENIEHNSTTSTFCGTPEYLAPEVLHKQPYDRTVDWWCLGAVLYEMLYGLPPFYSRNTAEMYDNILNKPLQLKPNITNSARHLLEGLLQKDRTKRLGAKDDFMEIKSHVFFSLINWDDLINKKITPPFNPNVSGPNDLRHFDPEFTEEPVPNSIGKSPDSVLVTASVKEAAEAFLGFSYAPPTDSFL

[3] = molecular target: Casein kinase I isoform alpha (Homo sapiens) (UniProt P48729); assay: Inhibition of recombinant full length human GST-tagged CSNK1A1 expressed in baculovirus expression system assessed as enzyme residual activity at 0.4 uM using fluorophore-labeled serine/threonine-11 peptide as substrate incubated for 60 mins by Z'-LYTE assay relative to control
Casein kinase I isoform alpha (Homo sapiens), sequence (P48729 2-337 limits assumed): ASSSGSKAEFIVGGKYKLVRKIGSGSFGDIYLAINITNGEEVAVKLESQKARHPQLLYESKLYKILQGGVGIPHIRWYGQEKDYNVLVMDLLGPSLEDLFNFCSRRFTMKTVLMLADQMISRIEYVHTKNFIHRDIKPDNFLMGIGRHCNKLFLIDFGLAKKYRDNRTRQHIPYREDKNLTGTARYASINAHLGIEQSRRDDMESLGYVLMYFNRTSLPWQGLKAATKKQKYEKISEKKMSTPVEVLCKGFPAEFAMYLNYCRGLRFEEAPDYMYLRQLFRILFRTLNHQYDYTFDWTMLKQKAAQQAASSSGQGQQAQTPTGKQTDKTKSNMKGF

[4] = molecular target: Insulin-like growth factor 1 receptor (Homo sapiens) (UniProt P08069); assay: (§1) Inhibition of recombinant human His-tagged IGF1R cytoplasmic domain (960 to 1397 residues) expressed in baculovirus expression system assessed as enzyme residual activity at 0.4 uM using fluorophore-labeled tyrosine-1 peptide as substrate incubated for 60 mins by Z'-LYTE assay relative to control
Insulin-like growth factor 1 receptor (Homo sapiens), sequence (P08069 31-736 limits assumed): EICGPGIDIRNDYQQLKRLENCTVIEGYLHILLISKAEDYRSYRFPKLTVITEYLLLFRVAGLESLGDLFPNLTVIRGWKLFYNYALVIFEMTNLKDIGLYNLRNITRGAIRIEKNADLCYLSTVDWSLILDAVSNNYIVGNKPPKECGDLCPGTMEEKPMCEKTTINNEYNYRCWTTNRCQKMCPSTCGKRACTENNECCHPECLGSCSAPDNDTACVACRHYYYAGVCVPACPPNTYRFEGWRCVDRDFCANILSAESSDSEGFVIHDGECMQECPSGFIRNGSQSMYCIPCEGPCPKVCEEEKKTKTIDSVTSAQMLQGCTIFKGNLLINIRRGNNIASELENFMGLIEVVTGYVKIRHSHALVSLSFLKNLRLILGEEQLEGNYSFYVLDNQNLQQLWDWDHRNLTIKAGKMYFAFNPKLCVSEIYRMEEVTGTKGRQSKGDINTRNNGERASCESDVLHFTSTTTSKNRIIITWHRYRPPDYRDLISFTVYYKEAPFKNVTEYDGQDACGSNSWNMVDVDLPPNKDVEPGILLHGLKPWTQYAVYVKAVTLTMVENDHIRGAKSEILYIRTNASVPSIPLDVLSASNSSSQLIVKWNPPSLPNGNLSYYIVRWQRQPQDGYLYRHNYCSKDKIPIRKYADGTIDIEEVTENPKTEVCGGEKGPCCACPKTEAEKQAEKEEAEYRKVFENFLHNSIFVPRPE
Insulin-like growth factor 1 receptor (Homo sapiens), sequence (P08069 741-1367 limits assumed): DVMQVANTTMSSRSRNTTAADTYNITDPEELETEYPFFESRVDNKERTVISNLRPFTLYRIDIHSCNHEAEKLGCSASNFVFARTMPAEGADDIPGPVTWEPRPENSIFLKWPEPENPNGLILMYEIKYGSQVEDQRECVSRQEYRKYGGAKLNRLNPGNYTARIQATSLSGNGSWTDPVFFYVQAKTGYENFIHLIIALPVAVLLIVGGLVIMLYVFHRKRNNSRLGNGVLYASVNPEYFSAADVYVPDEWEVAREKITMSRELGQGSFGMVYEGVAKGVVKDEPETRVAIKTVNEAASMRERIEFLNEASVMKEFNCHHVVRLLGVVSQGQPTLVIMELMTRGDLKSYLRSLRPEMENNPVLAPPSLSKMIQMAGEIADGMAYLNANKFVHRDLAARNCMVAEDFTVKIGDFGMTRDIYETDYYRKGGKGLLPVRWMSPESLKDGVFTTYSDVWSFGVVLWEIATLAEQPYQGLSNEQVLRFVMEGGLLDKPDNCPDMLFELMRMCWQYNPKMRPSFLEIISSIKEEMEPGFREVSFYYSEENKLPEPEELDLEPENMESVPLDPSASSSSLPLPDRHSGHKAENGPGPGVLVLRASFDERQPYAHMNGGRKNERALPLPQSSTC

[5] = molecular target: Hepatocyte growth factor receptor (Homo sapiens) (UniProt P08581); assay: as §1, with “human N-terminal” for “human”, “cMET” for “IGF1R”, “(956” for “(960”, “1390” for “1397”, “tyrosine 6” for “tyrosine-1”
[6] = Inhibition of tracer 236 binding to recombinant full length human C-terminal His-tagged AMPK alpha2/beta2/gamma1 expressed in baculovirus infected Sf9 cells assessed as enzyme residual activity at 0.4 uM incubated for 60 mins by Lanthascreen assay relative to control
[7] = molecular target: Aurora kinase B (Homo sapiens) (UniProt Q96GD4); assay: Inhibition of recombinant full length human His-tagged Aurora B expressed in baculovirus expression system assessed as enzyme residual activity at 0.4 uM using fluorophore-labeled serine/threonine-1 peptide as substrate incubated for 60 mins by Z'-LYTE assay relative to control
Aurora kinase B (Homo sapiens), sequence (Q96GD4 whole entry): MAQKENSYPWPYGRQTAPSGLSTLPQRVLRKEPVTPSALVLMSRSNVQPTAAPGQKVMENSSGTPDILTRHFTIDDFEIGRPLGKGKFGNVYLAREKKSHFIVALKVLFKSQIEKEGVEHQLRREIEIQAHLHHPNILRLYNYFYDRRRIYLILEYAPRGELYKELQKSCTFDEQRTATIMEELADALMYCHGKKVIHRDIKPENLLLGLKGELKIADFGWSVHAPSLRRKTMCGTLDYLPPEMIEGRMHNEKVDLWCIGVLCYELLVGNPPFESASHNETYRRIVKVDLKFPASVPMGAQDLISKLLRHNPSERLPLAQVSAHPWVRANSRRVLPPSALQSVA

[8] = molecular target: Glycogen synthase kinase-3 alpha (Homo sapiens) (UniProt P49840); assay: Inhibition of recombinant full length human His-tagged GSK3alpha expressed in baculovirus expression system assessed as enzyme residual activity at 0.4 uM using fluorophore-labeled serine/threonine-9 peptide as substrate incubated for 60 mins by Z'-LYTE assay relative to control
Glycogen synthase kinase-3 alpha (Homo sapiens), sequence (P49840 2-483 limits assumed): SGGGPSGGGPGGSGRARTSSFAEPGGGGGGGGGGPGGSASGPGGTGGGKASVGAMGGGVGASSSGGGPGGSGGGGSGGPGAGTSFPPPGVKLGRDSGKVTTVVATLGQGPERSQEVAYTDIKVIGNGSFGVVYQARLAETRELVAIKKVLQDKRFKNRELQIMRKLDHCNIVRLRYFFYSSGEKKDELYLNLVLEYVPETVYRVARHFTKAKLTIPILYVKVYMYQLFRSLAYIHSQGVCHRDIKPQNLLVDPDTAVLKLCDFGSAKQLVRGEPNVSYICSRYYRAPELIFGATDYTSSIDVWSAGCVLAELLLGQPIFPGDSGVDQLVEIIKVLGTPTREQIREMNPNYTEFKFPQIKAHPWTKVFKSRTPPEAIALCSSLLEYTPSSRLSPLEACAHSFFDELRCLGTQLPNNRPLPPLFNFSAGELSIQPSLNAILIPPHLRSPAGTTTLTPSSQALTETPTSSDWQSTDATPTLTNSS

[9] = molecular target: Mitogen-activated protein kinase 8 (Homo sapiens) (UniProt P45983); assay: Inhibition of tracer 236 binding to recombinant full length human His-tagged MAPK8 expressed in baculovirus expression system assessed as enzyme residual activity at 0.4 uM incubated for 60 mins by Lanthascreen assay relative to control
Mitogen-activated protein kinase 8 (Homo sapiens), sequence (P45983 whole entry, the tested form may be a part): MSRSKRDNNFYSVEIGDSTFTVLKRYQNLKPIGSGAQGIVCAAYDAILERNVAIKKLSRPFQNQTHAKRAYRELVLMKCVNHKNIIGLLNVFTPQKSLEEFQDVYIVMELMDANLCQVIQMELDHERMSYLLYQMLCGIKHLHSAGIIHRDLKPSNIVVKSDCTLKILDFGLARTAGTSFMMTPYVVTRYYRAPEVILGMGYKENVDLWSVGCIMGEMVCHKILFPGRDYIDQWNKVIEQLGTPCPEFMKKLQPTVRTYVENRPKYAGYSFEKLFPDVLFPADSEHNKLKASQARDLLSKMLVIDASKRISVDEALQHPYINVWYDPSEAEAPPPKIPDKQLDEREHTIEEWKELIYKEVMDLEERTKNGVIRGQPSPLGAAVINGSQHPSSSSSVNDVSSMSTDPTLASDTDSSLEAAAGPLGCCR

[10] = molecular target: Tyrosine-protein kinase JAK3 (Homo sapiens) (UniProt P52333); assay: Inhibition of recombinant human GST-tagged JAK3 catalytic domain (781 to 1124 residues) expressed in baculovirus expression system assessed as enzyme residual activity at 0.4 uM using fluorophore-labeled tyrosine-6 peptide as substrate incubated for 60 mins by Z'-LYTE assay relative to control
Tyrosine-protein kinase JAK3 (Homo sapiens), sequence (P52333 whole entry, the tested form may be a part): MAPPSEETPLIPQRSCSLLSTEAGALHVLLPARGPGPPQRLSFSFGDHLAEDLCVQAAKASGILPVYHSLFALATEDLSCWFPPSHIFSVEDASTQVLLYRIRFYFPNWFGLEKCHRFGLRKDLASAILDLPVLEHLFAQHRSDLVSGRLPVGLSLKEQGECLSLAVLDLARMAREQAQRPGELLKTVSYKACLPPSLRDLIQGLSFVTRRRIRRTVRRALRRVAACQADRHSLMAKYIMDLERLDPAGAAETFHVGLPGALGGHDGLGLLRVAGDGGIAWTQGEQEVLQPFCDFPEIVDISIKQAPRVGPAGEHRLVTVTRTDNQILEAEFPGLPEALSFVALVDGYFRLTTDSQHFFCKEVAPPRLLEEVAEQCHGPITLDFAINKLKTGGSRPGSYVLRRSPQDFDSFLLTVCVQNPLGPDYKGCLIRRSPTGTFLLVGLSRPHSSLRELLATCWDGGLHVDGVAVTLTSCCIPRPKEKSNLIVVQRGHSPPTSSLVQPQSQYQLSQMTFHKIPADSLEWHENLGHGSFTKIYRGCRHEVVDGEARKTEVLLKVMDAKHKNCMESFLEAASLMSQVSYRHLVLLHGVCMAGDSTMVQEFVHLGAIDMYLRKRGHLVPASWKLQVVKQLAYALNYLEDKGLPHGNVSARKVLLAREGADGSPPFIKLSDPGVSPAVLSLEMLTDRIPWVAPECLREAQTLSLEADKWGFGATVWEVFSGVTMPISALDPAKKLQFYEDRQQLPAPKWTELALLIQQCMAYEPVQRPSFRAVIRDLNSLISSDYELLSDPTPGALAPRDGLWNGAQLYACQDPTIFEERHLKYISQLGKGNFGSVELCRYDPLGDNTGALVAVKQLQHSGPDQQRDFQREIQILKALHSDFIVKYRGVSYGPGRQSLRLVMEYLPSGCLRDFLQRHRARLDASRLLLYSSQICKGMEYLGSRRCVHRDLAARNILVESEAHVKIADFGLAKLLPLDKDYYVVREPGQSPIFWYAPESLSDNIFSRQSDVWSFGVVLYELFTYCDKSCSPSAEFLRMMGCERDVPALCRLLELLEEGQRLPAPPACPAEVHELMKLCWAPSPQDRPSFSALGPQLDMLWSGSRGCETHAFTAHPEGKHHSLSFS

[11] = molecular target: Tyrosine-protein kinase ABL1 (Homo sapiens) (UniProt P00519); assay: Inhibition of recombinant full length human His-tagged ABL1 cytoplasmic domain expressed in baculovirus expression system assessed as enzyme residual activity at 0.4 uM using fluorophore-labeled tyrosine-2 peptide as substrate incubated for 60 mins by Z'-LYTE assay relative to control
TAK1/TAB1 (Homo sapiens) = TAK1/TAB1 (Homo sapiens) (UniProt Q15750+O43318); assay: Inhibition of tracer 222 binding to recombinant full-length human His-tagged MAP3K7/MAP3K7IP1 (437 to 504 residues) expressed in baculovirus expression system assessed as enzyme residual activity at 0.4 uM incubated for 60 mins by Lanthascreen assay relative to control
[12] = molecular target: T2, Tyrosine-protein kinase ITK/TSK (Homo sapiens) (UniProt Q08881); assay: Inhibition of ITK in human Jurkat cells assessed as reduction in anti-CD3/CD28-stimulated PLCgamma1 phosphorylation at 0.1 to 10000 nM preincubated for 2 hrs followed by anti-CD3/CD28 beads addition and measured after 30 min by Western blot analysis; format: cell-based
T2 sequence (whole entry): T1 sequence (Q08881 whole entry)

HEK-293T = assay: Growth inhibition of HEK293T cells incubated for 72 hrs by CellTiter-Glo luminescent cell viability assay; format: functional; conditions: Homo sapiens
Jurkat [13] = assay: Induction of apoptosis in human Jurkat cells assessed as downregulation of caspase3 at 1 to 20 uM incubated for 24 hrs by Western blot analysis; format: functional, cell-based
Jurkat [14] = assay: Induction of apoptosis in human Jurkat cells assessed as downregulation of PARP at 1 to 20 uM incubated for 24 hrs by Western blot analysis; format: functional, cell-based
MOLT-4 [15] = assay: Induction of apoptosis in human MOLT4 cells assessed as downregulation of caspase3 at 1 to 20 uM incubated for 24 hrs by Western blot analysis; format: functional, cell-based
MOLT-4 [16] = assay: Induction of apoptosis in human MOLT4 cells assessed as upregulation of cleaved PARP at 1 to 20 uM incubated for 24 hrs by Western blot analysis; format: functional, cell-based
[17] = molecular target: Tyrosine-protein kinase Blk (Homo sapiens, UniProt P51451); assay: Inhibition of recombinant full-length human His-tagged BLK cytoplasmic domain expressed in baculovirus expression system using fluorophore-labeled tyrosine-1 peptide as substrate incubated for 60 mins by Z'-LYTE assay
Tyrosine-protein kinase Blk, sequence (P51451 whole entry, the tested form may be a part): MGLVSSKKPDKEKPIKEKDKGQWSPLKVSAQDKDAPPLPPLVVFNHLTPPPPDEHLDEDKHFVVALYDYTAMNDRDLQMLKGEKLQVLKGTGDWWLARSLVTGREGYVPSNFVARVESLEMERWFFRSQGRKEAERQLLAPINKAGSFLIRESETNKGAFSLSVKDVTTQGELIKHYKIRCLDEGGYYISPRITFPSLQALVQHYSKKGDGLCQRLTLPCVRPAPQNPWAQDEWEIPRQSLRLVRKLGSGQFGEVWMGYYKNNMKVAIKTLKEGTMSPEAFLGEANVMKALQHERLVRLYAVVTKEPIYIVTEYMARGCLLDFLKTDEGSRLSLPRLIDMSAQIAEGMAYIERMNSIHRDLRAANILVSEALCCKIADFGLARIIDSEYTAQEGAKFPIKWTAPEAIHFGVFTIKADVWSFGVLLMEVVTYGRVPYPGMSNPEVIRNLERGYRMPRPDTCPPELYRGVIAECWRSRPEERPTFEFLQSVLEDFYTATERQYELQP

IC50 [1]: 3.7 nM | Ki [1]: 6.3 nM | Activity [2]: 97% | Activity [3]: 92.7% | Activity [4]: 84% | Activity [5]: 79% | Activity [7]: 36% | Activity [8]: 29.3% | Activity [9]: 25% | Activity [10]: 16.3% | Activity [11]: 11.7% | Activity (TAK1/TAB1 (Homo sapiens)): 0% | inhibition [12]: Active | IC50 [17]: 198 nM
Compound: C=CC(=O)N1CCC(Oc2nc(Nc3ccc(N4CCOCC4)cc3)nc3[nH]cc(-c4cncc(NC)n4)c23)CC1
Ratio IC50 (Homo sapiens): 250 | Activity [6]: 64.3% | GI50 (HEK-293T): 544 nM | Activity (Jurkat [13]): Active | Activity (Jurkat [14]): Active | Activity (MOLT-4 [15]): Active | Activity (MOLT-4 [16]): Active
